From PMC8347134, “Preparation of Antiproliferative Terpene-Alkaloid Hybrids by Free Radical-Mediated Modification of ent-Kauranic Derivatives” (Molecules, 2021)
Like-named read-outs stand apart in the source and are kept apart here.

Columns and labels:
Format in all cases: cell-based
[1] = tested on: DND-41 (acute lymphoblastic leukemia); assay: Cell proliferation assay (IncuCyte); details: for IC50: DND41, 72 h; for SI DND-41: ratio IC50 hTERT RPE-1 / IC50 DND-41
Protocol: (§1) A parallel cytotoxicity assay was performed on non-cancerous retina cells (hTERT RPE-1) in order to estimate the selectivity of the investigated compounds towards tumor cells. The inhibition of cell proliferation was calculated as IC50 by interpolation based on the semi-log dose response.
(§2) All cell lines were cultured as recommended by the suppliers. Culture media were purchased from Gibco Life Technologies, USA, and supplemented with 10% fetal bovine serum (HyClone, GE Healthcare Life Sciences, Logan, UT, USA). […] All stock solutions were prepared in DMSO.
(§3) After overnight incubation, cells were treated with the test compounds at seven different concentrations ranging from 100 to 6.4 × 10^−3 µM. […] The plates were incubated at 37 °C and monitored for 72 h in an IncuCyte® device (Essen BioScience Inc., Ann Arbor, MI, USA) for real-time imaging. Images were taken every 3 h, with one field imaged per well under 10× magnification. Cell growth was then quantified based on the percent cellular confluence as analysed by the IncuCyte® image analysis software and used to calculate IC50 values by linear interpolation. All tests have been performed in duplicate and the average values have been calculated.

[2] = tested on: Capan-1 (pancreatic adenocarcinoma); assay: Cell proliferation assay (IncuCyte); details: for IC50: Homo sapiens, CAPAN-1, 72 h; for SI Capan-1: ratio IC50 hTERT RPE-1 / IC50 Capan-1
Protocol: as §1, §2, §3

[3] = tested on: NCI-H460 (lung carcinoma); assay: Cell proliferation assay (IncuCyte); details: for IC50: Homo sapiens, NCI-H460, 72 h; for SI NCI-H460: ratio IC50 hTERT RPE-1 / IC50 NCI-H460
Protocol: as §1, §2, §3

[4] = tested on: HCT-116 (colorectal carcinoma); assay: Cell proliferation assay (IncuCyte); details: for IC50: Homo sapiens, HCT-116, 72 h; for SI HCT-116: ratio IC50 hTERT RPE-1 / IC50 HCT-116
Protocol: as §1, §2, §3

[5] = tested on: HL-60 (acute myeloid leukemia); assay: Cell proliferation assay (IncuCyte); details: for IC50: Homo sapiens, HL-60, 72 h; for SI HL-60: ratio IC50 hTERT RPE-1 / IC50 HL-60
Protocol: as §1, §2, §3

[6] = tested on: Z-138 (non-Hodgkin lymphoma); assay: Cell proliferation assay (IncuCyte); details: for IC50: Homo sapiens, Z-138, 72 h; for SI Z-138: ratio IC50 hTERT RPE-1 / IC50 Z-138
Protocol: as §1, §2, §3

[7] = tested on: K-562 (chronic myeloid leukemia); assay: Cell proliferation assay (IncuCyte); details: for IC50: Homo sapiens, K562, 72 h; for SI K-562: ratio IC50 hTERT RPE-1 / IC50 K-562
Protocol: as §1, §2, §3

[8] = tested on: hTERT RPE-1; assay: Parallel cytotoxicity assay on non-cancerous retina cells
Protocol: as §1, §2, §3

[9] = tested on: seven different tumor cell lines; assay: Proliferation assays, best value over the seven tumor cell lines; details: for SImax: highest selectivity index over the tumor cell lines (Figure 4); for IC50 for retina (hTERT RPE-1) cells fold higher than for cancerous cells: highest selectivity indices
Protocol: as §1, §2, §3

[10] = hTERT-RPE1, 72 h, duplicate, mean ± deviation
[11] = lowest IC50 over the tumor cell lines (Figure 4), read-out: IC50 min

SMILES	IC50 ([1]; duplicate, mean ± deviation) [µM]	IC50 ([2]; duplicate, mean ± deviation) [µM]	IC50 ([3]; duplicate, mean ± deviation) [µM]	IC50 ([4]; duplicate, mean ± deviation) [µM]	SI HCT-116 [4]	IC50 ([5]; duplicate, mean ± deviation) [µM]	IC50 ([6]; duplicate, mean ± deviation) [µM]	SI Z-138 [6]	IC50 ([7]; duplicate, mean ± deviation) [µM]	IC50 [8, 10] [µM]	SI DND-41 [1]	SI Capan-1 [2]	SI NCI-H460 [3]	SImax [9]	IC50 for retina (hTERT RPE-1) cells fold higher than for cancerous cells [9]	IC50 [9, 11] [µM]	also measured
COC(=O)[C@]1(C)CCC[C@@]2(C)[C@@H]3CC[C@@H]4C[C@@]3(CC[C@@H]21)C[C@@]4(CCC(=O)O)N=[N+]=[N-] [Compound 14]	44.5 ± 4.8	44.5 ± 8.3	31.1 ± 1.6	5.8 ± 0.1	4.5	46.2 ± 9.1	22.7	1.2	41	26.2 ± 0.9							
COC(=O)CCC1(N=[N+]=[N-])C2CCC3C4(C)CCCC(C)(C(=O)OC)C4CCC3(C2)C1O (centres unmarked) [Compound 26]	6.6 ± 1.3	8.3 ± 1.1	0.6 ± 0.2	9.9 ± 2.7	2.6	41.1 ± 15.9	21.6 ± 5.4	1.2	36.9 ± 0.2	25.9 ± 0.3	3.9	3.1	43.2	43.2	up to 43 fold	0.6 ± 0.2	
CCOC(=O)CCC1=C[C@@]23CC[C@H]4[C@@](C)(CCC[C@@]4(C)C(=O)OC)[C@@H]2CC[C@@H]1C3 [Compound 7]	36.5 ± 0.7	37.1 ± 3.9	12 ± 1.5	30.7 ± 16.4		19.6 ± 7.7	27.6 ± 15.5	1.1	24.7 ± 11.8	29.2 ± 1.2			2.4				SI HL-60 [5]: 1.5; SI K-562 [7]: 1.2
CC(=O)O[C@@]12CO[C@@H]1C[C@H](O)[C@@]1(C)C(=O)[C@H](O)C3=C(C)[C@@H](OC(=O)[C@H](O)[C@@H](NC(=O)OC(C)(C)C)c4ccccc4)C[C@@](O)([C@@H](OC(=O)c4ccccc4)[C@H]21)C3(C)C [DT, docetaxel, reference compound]																	IC50 ([1]; positive controls): 0.0047 ± 0.0012 µM; IC50 ([2]; positive controls): 0.0042 ± 0.0018 µM; IC50 ([3]; positive controls): 0.0055 ± 0.0013 µM; IC50 ([4]; positive controls): 0.0022 ± 0.0008 µM; IC50 ([5]; positive controls): 0.0043 ± 0.0016 µM; IC50 ([6]; positive controls): 0.0037 ± 0.0007 µM; IC50 ([7]; positive controls): 0.0052 ± 0.0012 µM; IC50 ([8]; hTERT-RPE1, positive controls, 72 h): 0.0187 ± 0.0048 µM
COC(=O)C1(C)CCCC2(C)C3CCC4CC3(C=C4CCC#N)CCC12 (centres unmarked) [Compound 16]	7.8 ± 1	18.1 ± 3.4	15.4 ± 6	19 ± 5.7	2.0	33.6 ± 2.6	22.1 ± 11.4	1.7	58.4 ± 2.5	38.2 ± 5.1	4.9	2.1	2.5	4.9		7.8 ± 1	SI HL-60 [5]: 1.1
COC(=O)C1(C)CCCC2(C)C3CCC4CC3(CCC12)CC41CCC(=O)N1 (centres unmarked) [Compound 12]	21.4 ± 10.1	1.2 ± 0.7	1.4 ± 0.1	0.8 ± 0.2	9.5	38.3 ± 17.8	52 ± 33.4		36.4 ± 11.5	7.6 ± 0.5		6.3	5.4	9.5	up to 43 fold	0.8 ± 0.2	
COC(=O)C1(C)CCCC2(C)C1CCC13CC(CCC21)C1(CCC(=O)N1)C3O (centres unmarked) [Compound 27]	8.3 ± 2	3.7 ± 1.7	1.9 ± 0.2	4 ± 3.7	6.9	38 ± 11.8	39.8 ± 10.9		56.5 ± 2.8	27.7 ± 4.3	3.3	7.5	14.6	14.6	up to 43 fold	1.9 ± 0.2	
COC(=O)C1(C)CCCC2(C)C1CCC13CC(CCC21)C(CCC(=O)O)(N=[N+]=[N-])C3O (centres unmarked) [Compound 24]	38.9 ± 4.1	33.2 ± 7.6	41.8 ± 5.3	18.8 ± 8	1.7	49.3 ± 5	25.2 ± 0.3	1.3	76.3 ± 1.4	31.7 ± 3.1							
COC(=O)[C@]1(C)CCC[C@@]2(C)[C@@H]3CC[C@@H]4C[C@@]3(CC[C@@H]21)[C@H]1OC(=O)CC=C41 [Compound 22]	2.3 ± 0.3	1.3 ± 0.6	1.4 ± 0.3	0.5 ± 0.2	2.8	3.7 ± 1.3	2.4 ± 1.1		2.5 ± 0.1	1.4 ± 0.1		1.1	1				IC50 ([9]; tumor cell lines, read-out: IC50 values): < 1 µM
CC1(C(=O)O)CCCC2(C)C1CCC13CC(CCC21)C(CCC#N)(N=[N+]=[N-])C3O (centres unmarked) [Compound 25]	36.4 ± 9.8	6.4 ± 1.5	34 ± 2.9	34.4 ± 0.5		> 100	52 ± 17.4		> 100	33.6 ± 4.5		5.3		5.3		6.4 ± 1.5	
COC(=O)C1(C)CCCC2(C)C3CCC4CC3(CCC12)CC41CCCN1 (centres unmarked) [Compound 13]	6.1 ± 1.1	11.5 ± 1	1 ± 0.1	11.6 ± 0.5	2.8	8.3 ± 1.3	9.5 ± 0.9	3.4	3.2 ± 1	32.2 ± 2	5.3	2.8	32.2	32.2	up to 43 fold	1 ± 0.1	SI HL-60 [5]: 3.9; SI K-562 [7]: 10.1
CN[C@@H]1C[C@H]2O[C@@](C)([C@@H]1OC)n1c3ccccc3c3c4c(c5c6ccccc6n2c5c31)C(=O)NC4 [SP, staurosporine, reference compound]																	IC50 ([1]; positive controls): 0.0086 ± 0.0015 µM; IC50 ([3]; positive controls): 0.0022 ± 0.0008 µM; IC50 ([5]; positive controls): 0.0091 ± 0.0016 µM; IC50 ([7]; positive controls): 0.0279 ± 0.0032 µM
